Laboratory results: article PMC10931833, “Simultaneous Purification of Human Interferon Alpha-2b and Serum Albumin Using Bioprivileged Fluorinated Ionic Liquid-Based Aqueous Biphasic Systems” (International Journal of Molecular Sciences, 2024)
Like-named read-outs stand apart in the source and are kept apart here.

Tests used:
FITC-BSA = target: T1, FITC-BSA (Bos taurus, UniProt P02769); test: MST binding to FITC-BSA; design: species or system bovine; settings: 0.41 μM BSA
T1 construct: purchased Millipore Sigma-Aldrich
Protocol: Herein, a commercial FITC labeling kit (Section 3) was used to fluorescently tag both IFN- α 2b and BSA. Typically, in the labeling process, one amine per protein is labeled, statistically distributing the position of the dye. […] The MST assay was performed as detailed in Section 3. The solutions were prepared with a concentration of IFN- α 2b and BSA fixed at 0.41 μ M in water. For IFN- α 2b a concentration of 2.7 μ M was also prepared to compare it with previous results on MST-binding between FILs and IFN- α 2b fluorescently labeled with a different tag. In each run of MST, a maximum concentration of a ligand is selected and consecutively diluted in sixteen capillaries. […] The experimental conditions of the MST assay only allow the study of the aggregation phenomenon individually for the first CAC.
Microscale thermophoresis (MST) measurements of the dye-labeled protein were used to conduct binding investigations. […] MST tests were conducted in a monolith NT.115 (blue/red) in accordance with the NanoTemper Technologies methodology. Medium MST power and 20% LED power (nano-blue) were set as the instrument’s default settings. For every MST measurement, a PBS buffer was used. The concentration of FITC-BSA was fixed at 0.4 μ M and FITC-IFN- α 2b was tested under two different concentrations (of 0.4 and 2.7 μ M). The ligand was used to create a set of 16 1:1 dilutions, with the starting ligand concentrations ranging from 10 to 400 mM. The typical parameters for MST traces were used for recording: […], 30 s MST power on, and 5 s MST power off. The data from three independently conducted pipetted experiments were examined using NanoTemper Technologies’ MO.Affinity Analysis software, version 2.3.

BSA [1] = target: T2, BSA (Bos taurus, UniProt P02769); test: CD thermal unfolding (Tm) of BSA; format: physicochemical, bovine
T2 construct: purchased Millipore Sigma-Aldrich
From the text: The thermal stability assessed by far-UV CD is solely determined through the thermal decay of the alpha-helical structure.

BSA [2] = target: T2, BSA; test: DSC thermal unfolding of BSA in water and aqueous solutions of ABS phase-forming components; format: physicochemical, bovine
Protocol: Differential scanning calorimetry (DSC) measurements were performed with Nano DSC equipment, as detailed in Section 3, and used to determine the melting temperature (T m ) and enthalpy ( Δ H) of protein unfolding. DSC analyzes changes in the structure and stability of proteins as thermal transitions at the nanoscale. Using DSC to measure heat capacity as a function of the temperature of a well-studied protein such as BSA provides keen insights into folding and unfolding processes, as well as factors affecting stability. Due to the volume and concentration requirements of the DSC technique, and the constraints in available quantities of IFN- α 2b the DSC experiments on the ABS phase-forming components’ effect on the structural properties of proteins were attained only for BSA.
The T m of BSA, which corresponds to the thermal unfolding transition midpoint, was measured in the absence and presence of the ABS phase-forming components at increasing concentrations (see Figure 1 and Table 2).

BSA [3] = target: T2, BSA; test: Far-UV CD secondary structure of BSA (CONTIN-LL deconvolution); format: physicochemical, bovine; design: Regular Alpha Helix / Distorted Alpha Helix / Regular Beta Sheet / Distorted Beta Sheet / Turns / Unordered: unit not given here; settings: for Distorted Alpha Helix / Distorted Beta Sheet / Regular Alpha Helix / Regular Beta Sheet / Turns / Unordered: 25 °C
From the text: Circular dichroism (CD) is widely used to study the secondary structures of proteins, peptides and nucleic acids, because it requires a low concentration sample, is a nondestructive method, allows studying a wide range of variables (temperature, pH, etc.), and provides information on the effect of added ligands on protein folding and interactions. Far-UV (190–260 nm) CD spectroscopy was used to assess the IFN- α 2b and BSA secondary structure since the spectra are characteristic of different structural elements.
Circular dichroism (CD) spectra were collected in a 10 mm quartz cuvette and a Chirascan spectropolarimeter (Applied Photophysics, UK) at room temperature. All CD spectra were recorded in the far-UV range of 190 to 260 nm at scan rates of 50 nm/min, with 4 accumulations, and a response time of 3 s; CD spectra were collected. For each CD experiment, two distinct duplicates were acquired and combined. BSA was fixed at 1 mg/mL, solvent concentrations ranging from 0.1 to 200 mM were used, and the spectra were translated to MRE after being expressed in terms of molar ellipticity. Spectral deconvolution was carried out with DichroWeb using the CONTIN-LL deconvolution algorithm with the SMP180 reference set.

[4] = 1.0 mg/ml BSA, 200 mM component aqueous solution
[5] = 1.0 mg/mL BSA, 0.1 mM component
[6] = 1.0 mg/mL BSA, 120 mM component
[7] = 1.0 mg/mL BSA, 200 mM component
[8] = 1.2-1.6 mg/mL BSA in [N1112(OH)][H2PO4]-rich phase of BP#8

T2 sequence (P02769 25-607): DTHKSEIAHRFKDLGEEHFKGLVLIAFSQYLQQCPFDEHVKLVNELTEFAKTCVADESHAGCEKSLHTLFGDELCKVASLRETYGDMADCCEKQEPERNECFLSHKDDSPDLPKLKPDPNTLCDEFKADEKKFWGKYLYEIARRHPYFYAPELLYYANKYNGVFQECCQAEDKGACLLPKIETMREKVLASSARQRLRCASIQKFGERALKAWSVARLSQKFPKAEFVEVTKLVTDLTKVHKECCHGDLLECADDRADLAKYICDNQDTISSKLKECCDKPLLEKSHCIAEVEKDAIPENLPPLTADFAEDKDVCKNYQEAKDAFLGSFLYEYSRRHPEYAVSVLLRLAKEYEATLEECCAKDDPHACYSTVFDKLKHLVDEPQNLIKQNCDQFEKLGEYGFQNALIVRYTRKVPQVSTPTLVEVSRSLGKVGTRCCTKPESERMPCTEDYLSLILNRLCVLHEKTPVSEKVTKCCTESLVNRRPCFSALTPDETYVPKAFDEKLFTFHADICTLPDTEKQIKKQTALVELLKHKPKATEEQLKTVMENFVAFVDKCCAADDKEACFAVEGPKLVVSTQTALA
T1 sequence (P02769 25-607): as above

Compound: O=S(=O)(O)C(F)(F)C(F)(F)C(F)(F)C(F)(F)F [[N1112(OH)][C4F9SO3], (2-hydroxyethyl)trimethylammonium perfluorobutane sulfonate]
- Kd (FITC-BSA; max. conc. first capillary in 1st CAC range, read-out: Kd): 860 ± 190 µM
- Kd (FITC-BSA; max. conc. first capillary in 2nd CAC range, read-out: Kd): 1490 ± 300 µM

Compound: C[N+](C)(C)CCO.C[N+](C)(C)CCO.O=P([O-])(O)O.O=P([O-])(O)O [[N1112(OH)][H2PO4], Choline ((2-hydroxyethyl)trimethylammonium) dihydrogen phosphate]
- Tm, Ellipticity 192 nm (BSA [1]; [4]): 65.691 °C
- Tm, Ellipticity 208 nm (BSA [1]; [4]): 76.945 °C
- Tm, Ellipticity 222 nm (BSA [1]; [4]): 66.702 °C
- Tm (BSA [2]; [5]): 75.36 °C
- ΔG (BSA [2]; [5]): 15.2 kcal/mol
- ΔHcal (BSA [2]; [5]): 105.9 kcal/mol
- ΔHcal/ΔHvH (BSA [2]; [5]): 0.949
- ΔHvH (BSA [2]; [5]): 111.6 kcal/mol
- ΔS (BSA [2]; [5]): 1.272 KJ/(mol.K)
- Tm (BSA [2]; 1.0 mg/mL BSA, 1 mM component): 81.59 °C
- ΔG (BSA [2]; 1.0 mg/mL BSA, 1 mM component): 18.02 kcal/mol
- ΔHcal (BSA [2]; 1.0 mg/mL BSA, 1 mM component): 112.4 kcal/mol
- ΔHcal/ΔHvH (BSA [2]; 1.0 mg/mL BSA, 1 mM component): 0.613
- ΔHvH (BSA [2]; 1.0 mg/mL BSA, 1 mM component): 183.3 kcal/mol
- ΔS (BSA [2]; 1.0 mg/mL BSA, 1 mM component): 1.325 KJ/(mol.K)
- Tm (BSA [2]; 1.0 mg/mL BSA, 5 mM component): 80.80 °C
- ΔG (BSA [2]; 1.0 mg/mL BSA, 5 mM component): 25.72 kcal/mol
- ΔHcal (BSA [2]; 1.0 mg/mL BSA, 5 mM component): 162.2 kcal/mol
- ΔHcal/ΔHvH (BSA [2]; 1.0 mg/mL BSA, 5 mM component): 1.081
- ΔHvH (BSA [2]; 1.0 mg/mL BSA, 5 mM component): 150 kcal/mol
- ΔS (BSA [2]; 1.0 mg/mL BSA, 5 mM component): 1.915 KJ/(mol.K)
- Tm (BSA [2]; 1.0 mg/mL BSA, 10 mM component): 73.90 °C
- ΔG (BSA [2]; 1.0 mg/mL BSA, 10 mM component): 17.42 kcal/mol
- ΔHcal (BSA [2]; 1.0 mg/mL BSA, 10 mM component): 122.8 kcal/mol
- ΔHcal/ΔHvH (BSA [2]; 1.0 mg/mL BSA, 10 mM component): 0.998
- ΔHvH (BSA [2]; 1.0 mg/mL BSA, 10 mM component): 123 kcal/mol
- ΔS (BSA [2]; 1.0 mg/mL BSA, 10 mM component): 1.479 KJ/(mol.K)
- effect on BSA Tm (DSC) (BSA [2]; tested concentration range vs water): maintained
- Distorted Alpha Helix (BSA [3]; [5]): 0.204
- Distorted Beta Sheet (BSA [3]; [5]): 0.031
- Regular Alpha Helix (BSA [3]; [5]): 0.397
- Regular Beta Sheet (BSA [3]; [5]): 0.000
- Turns (BSA [3]; [5]): 0.147
- Unordered (BSA [3]; [5]): 0.221
- Distorted Alpha Helix (BSA [3]; 1.0 mg/mL BSA, 1 mM component): 0.210
- Distorted Beta Sheet (BSA [3]; 1.0 mg/mL BSA, 1 mM component): 0.023
- Regular Alpha Helix (BSA [3]; 1.0 mg/mL BSA, 1 mM component): 0.393
- Regular Beta Sheet (BSA [3]; 1.0 mg/mL BSA, 1 mM component): 0.000
- Turns (BSA [3]; 1.0 mg/mL BSA, 1 mM component): 0.132
- Unordered (BSA [3]; 1.0 mg/mL BSA, 1 mM component): 0.242
- Distorted Alpha Helix (BSA [3]; 1.0 mg/mL BSA, 5 mM component): 0.203
- Distorted Beta Sheet (BSA [3]; 1.0 mg/mL BSA, 5 mM component): 0.023
- Regular Alpha Helix (BSA [3]; 1.0 mg/mL BSA, 5 mM component): 0.377
- Regular Beta Sheet (BSA [3]; 1.0 mg/mL BSA, 5 mM component): 0.004
- Turns (BSA [3]; 1.0 mg/mL BSA, 5 mM component): 0.128
- Unordered (BSA [3]; 1.0 mg/mL BSA, 5 mM component): 0.265
- Distorted Alpha Helix (BSA [3]; 1.0 mg/mL BSA, 25 mM component): 0.195
- Distorted Beta Sheet (BSA [3]; 1.0 mg/mL BSA, 25 mM component): 0.029
- Regular Alpha Helix (BSA [3]; 1.0 mg/mL BSA, 25 mM component): 0.36
- Regular Beta Sheet (BSA [3]; 1.0 mg/mL BSA, 25 mM component): 0.015
- Turns (BSA [3]; 1.0 mg/mL BSA, 25 mM component): 0.136
- Unordered (BSA [3]; 1.0 mg/mL BSA, 25 mM component): 0.266
- Distorted Alpha Helix (BSA [3]; 1.0 mg/mL BSA, 55 mM component): 0.150
- Distorted Beta Sheet (BSA [3]; 1.0 mg/mL BSA, 55 mM component): 0.055
- Regular Alpha Helix (BSA [3]; 1.0 mg/mL BSA, 55 mM component): 0.242
- Regular Beta Sheet (BSA [3]; 1.0 mg/mL BSA, 55 mM component): 0.080
- Turns (BSA [3]; 1.0 mg/mL BSA, 55 mM component): 0.153
- Unordered (BSA [3]; 1.0 mg/mL BSA, 55 mM component): 0.320
- Distorted Alpha Helix (BSA [3]; 1.0 mg/mL BSA, 90 mM component): 0.171
- Distorted Beta Sheet (BSA [3]; 1.0 mg/mL BSA, 90 mM component): 0.044
- Regular Alpha Helix (BSA [3]; 1.0 mg/mL BSA, 90 mM component): 0.294
- Regular Beta Sheet (BSA [3]; 1.0 mg/mL BSA, 90 mM component): 0.057
- Turns (BSA [3]; 1.0 mg/mL BSA, 90 mM component): 0.145
- Unordered (BSA [3]; 1.0 mg/mL BSA, 90 mM component): 0.289
- Distorted Alpha Helix (BSA [3]; [6]): 0.207
- Distorted Beta Sheet (BSA [3]; [6]): 0.029
- Regular Alpha Helix (BSA [3]; [6]): 0.396
- Regular Beta Sheet (BSA [3]; [6]): 0.018
- Turns (BSA [3]; [6]): 0.141
- Unordered (BSA [3]; [6]): 0.208
- Distorted Alpha Helix (BSA [3]; [7]): 0.202
- Distorted Beta Sheet (BSA [3]; [7]): 0.032
- Regular Alpha Helix (BSA [3]; [7]): 0.386
- Regular Beta Sheet (BSA [3]; [7]): 0.021
- Turns (BSA [3]; [7]): 0.146
- Unordered (BSA [3]; [7]): 0.212
- Kd (FITC-BSA; max. conc. first capillary 12.5 mM (monomer)): no binding detected
- Kd (FITC-BSA; max. conc. first capillary 400 mM (monomer)): no binding detected

Compound: Bovine serum albumin [BSA]
- Tm, Ellipticity 192 nm (BSA [1]; 1.0 mg/mL BSA in water): 74.028 °C
- Tm, Ellipticity 208 nm (BSA [1]; 1.0 mg/mL BSA in water): 74.616 °C
- Tm, Ellipticity 222 nm (BSA [1]; 1.0 mg/mL BSA in water): 76.277 °C
- Tm, Ellipticity 208 nm (BSA [1]; [8]): 76.122 °C
- Tm, Ellipticity 222 nm (BSA [1]; [8]): 80.396 °C
- ΔG (BSA [2]; 1.0 mg/mL BSA in water): 16.87 kcal/mol
- ΔHcal (BSA [2]; 1.0 mg/mL BSA in water): 113.9 kcal/mol
- ΔHvH (BSA [2]; 1.0 mg/mL BSA in water): 112.4 kcal/mol
- ΔS (BSA [2]; 1.0 mg/mL BSA in water): 1.361 KJ/(mol.K)
- Distorted Alpha Helix (BSA [3]; 1.0 mg/mL BSA in water): 0.206
- Distorted Beta Sheet (BSA [3]; 1.0 mg/mL BSA in water): 0.025
- Regular Alpha Helix (BSA [3]; 1.0 mg/mL BSA in water): 0.400
- Regular Beta Sheet (BSA [3]; 1.0 mg/mL BSA in water): 0.000
- Turns (BSA [3]; 1.0 mg/mL BSA in water): 0.136
- Unordered (BSA [3]; 1.0 mg/mL BSA in water): 0.233
- predicted α-helical content (BSA [3]; BSA in water, CD deconvolution): 0.61
